System: liver microtissue (MT) of HepaRG hepatocyte strain
Test: Evaluation of drug induced fatty liver toxicity by impedance of liver microtissue
Format: cell-based
Details: 0.5 M oleic acid
Procedure: 1. Completely differentiated HepaRG hepatocyte strain was obtained at the density of 4,000,000 cells/100 uL.
2. A sample was prepared according to the manual of C253000 provided by Microfit Co. 10 μL of cell suspension #1 was distributed in each well to allow 400,000 HepaRG cells to be placed per well. This step can be performed using a 3D cell preparation method such as a micropattern plate method or a hanging drop method.
3. The cells were cultured for 3 days and the cell culture medium was replaced every day.
4. On day 4, the microtissue (MT) was distributed in a 96-well plate (Ultra-Low attachment surface multiple well plate, Corning) using a 100 uL blue tip.
5a. The liver microtissue (MT) distributed in the Ultra-Low attachment surface multiple well plate was treated with 0.5 M oleic acid, a fatty liver toxicity inducing drug.
6a. A 200 μL pipette was inserted in the end of the first glass tube of Example 1 and the liver microtissue (MT) and the culture medium were sucked through the other end to fill the glass tube with preventing air bubble formation.
7a. The glass tube was inserted between the two Y tubes (third tube and fourth tube) of Example 1 and Example 4 with preventing air bubble formation.
8a. Air bubbles in the liquid were removed and let the wire of each Y tube shared the same liquid.
9a. The working electrode/sensing electrode of the potentiostat or impedance analyzer was connected to the gold (Au) wire protruding out of the Y tube (iii tube) and the reference/counter electrode was connected to the platinum (Pt) wire protruding out of the other Y tube (III tube).
10a. The liver microtissue (MT) was placed at the end of the plastic tip by using a 1 mL syringe.
11a. The pressure was set at −5 mPa by using the syringe pump and the liver microtissue (MT) was fixed at the plastic tip by the pressure difference.
12a. Alternating current impedance was measured at a fixed voltage of 50 mV from 10^6 Hz to 10^−2 Hz to measure the impedance of the liver microtissue (MT) and the PBS buffer.
13a. The pressure of the syringe pump was set at 10 mPa to allow the liver microtissue (MT) to be removed from the plastic tip.
14a. Impedance was measured at a fixed voltage of 50 mV from 10^6 Hz to 10^−2 Hz to measure the impedance of the PBS buffer (background).
15a. The interior resistance, the exterior resistance and the capacitance of 12a and the resistance and the capacitance of 14a were measured by using a Fitting program (e.g. Zview).
16a. The interior resistance, the exterior resistance and the capacitance of the liver microtissue (MT) were compared with those of the normal control group. At that time, the normal control group indicates the liver microtissue (MT) not treated with oleic acid which was regarded as a fatty liver toxicity inducing drug.
17a. […]

SMILES: CCCCCCCC/C=C\CCCCCCCC(=O)O [oleic acid]
- fat formation in the liver microtissue (MT): fat was formed
- impedance of the liver microtissue (MT) (compared with the normal control group, FIG. 2a, 2b, 3): increased
- resistance of the liver microtissue (MT) (compared with the normal control group, according to the pressure changes, FIG. 3): increased
- internal resistance of the liver microtissue (MT) (fitted with Zview, compared with normal control): increased
